Measured values: PubChem BioAssay (NCI)
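Each compound was tested at five concentrations against cells in 96-well plates for 48 hours. TGI marks complete inhibition of growth.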

Tests used:
Test in all cases: inhibition of tumour cell growth, NCI panel, 48 h
HT29 colon = system: HT29 colon
UACC-257 melanoma = system: UACC-257 melanoma
MDA-N = system: MDA-N
A549 NSCLC = system: A549 NSCLC
IGROV1 ovarian = system: IGROV1 ovarian
NCI-H460 lung = system: NCI-H460 lung
MOLT-4 leukemia = system: MOLT-4 leukemia
LOX IMVI melanoma = system: LOX IMVI melanoma
TK-10 renal = system: TK-10 renal
786-0 renal = system: 786-0 renal
ACHN renal = system: ACHN renal
BT-549 breast = system: BT-549 breast
NCI/ADR-RES ovarian = system: NCI/ADR-RES ovarian
NCI-H226 lung = system: NCI-H226 lung
KM12 colon = system: KM12 colon
HCT-15 colon = system: HCT-15 colon
SF-268 CNS = system: SF-268 CNS
OVCAR-3 ovarian = system: OVCAR-3 ovarian
HOP-92 NSCLC = system: HOP-92 NSCLC
CAKI-1 renal = system: CAKI-1 renal
SK-MEL-28 melanoma = system: SK-MEL-28 melanoma
T-47D breast = system: T-47D breast
SR leukemia = system: SR leukemia
SK-OV-3 ovarian = system: SK-OV-3 ovarian
SN12C renal = system: SN12C renal
M14 melanoma = system: M14 melanoma
SK-MEL-5 melanoma = system: SK-MEL-5 melanoma
NCI-H23 lung = system: NCI-H23 lung
MALME-3M melanoma = system: MALME-3M melanoma
SW-620 colon = system: SW-620 colon
SNB-19 CNS = system: SNB-19 CNS
EKVX NSCLC = system: EKVX NSCLC
MDA-MB-231 breast = system: MDA-MB-231 breast
RXF 393 renal = system: RXF 393 renal
OVCAR-8 ovarian = system: OVCAR-8 ovarian
SNB-75 CNS = system: SNB-75 CNS
RPMI-8226 leukemia = system: RPMI-8226 leukemia
MDA-MB-435 = system: MDA-MB-435
HL-60(TB) leukemia = system: HL-60(TB) leukemia
DU-145 prostate = system: DU-145 prostate
OVCAR-4 ovarian = system: OVCAR-4 ovarian
NCI-H522 lung = system: NCI-H522 lung
U251 CNS = system: U251 CNS
SK-MEL-2 melanoma = system: SK-MEL-2 melanoma
UACC-62 melanoma = system: UACC-62 melanoma
HOP-62 NSCLC = system: HOP-62 NSCLC
OVCAR-5 ovarian = system: OVCAR-5 ovarian
COLO 205 colon = system: COLO 205 colon
CCRF-CEM leukemia = system: CCRF-CEM leukemia
PC-3 prostate = system: PC-3 prostate
HS 578T breast = system: HS 578T breast
MCF7 breast = system: MCF7 breast
SF-295 CNS = system: SF-295 CNS
HCC-2998 colon = system: HCC-2998 colon
A498 renal = system: A498 renal
HCT-116 colon = system: HCT-116 colon
SF-539 CNS = system: SF-539 CNS
UO-31 renal = system: UO-31 renal
K-562 leukemia = system: K-562 leukemia

Measured: TGI

CC1(C)C2C=C(CCN3CCOCC3)CC1C2 (centres undefined)
> 100 µM: all assays above
